Test results published in ChEMBL document CHEMBL3217618, “The use of phosphate bioisosteres in medicinal chemistry and chemical biology” (Medchemcomm, 2012).
Numbered stars: 1 amine (or outer) side, 2 acyl side, 3 side chain; on linkers, the order of the positions; unused ones are H or OH. Square brackets hold non-standard residues; d marks the D form. Peptide text beside a SMILES is read from it. X1 = NS(=O)(=O)Cc1ccc(C[C@H](N[*:1])C(=O)[*:2])cc1

Experiments:
[1] = Inhibition of Streptococcus pneumoniae PIsY1
[2] = Inhibition of Bacillus anthracis PIsY1
[3] = molecular target: T1, Tyrosine-protein phosphatase non-receptor type 1 (Homo sapiens) (UniProt P18031); assay: Inhibition of PTP1B (unknown origin) at 11 uM
T1 sequence (whole entry): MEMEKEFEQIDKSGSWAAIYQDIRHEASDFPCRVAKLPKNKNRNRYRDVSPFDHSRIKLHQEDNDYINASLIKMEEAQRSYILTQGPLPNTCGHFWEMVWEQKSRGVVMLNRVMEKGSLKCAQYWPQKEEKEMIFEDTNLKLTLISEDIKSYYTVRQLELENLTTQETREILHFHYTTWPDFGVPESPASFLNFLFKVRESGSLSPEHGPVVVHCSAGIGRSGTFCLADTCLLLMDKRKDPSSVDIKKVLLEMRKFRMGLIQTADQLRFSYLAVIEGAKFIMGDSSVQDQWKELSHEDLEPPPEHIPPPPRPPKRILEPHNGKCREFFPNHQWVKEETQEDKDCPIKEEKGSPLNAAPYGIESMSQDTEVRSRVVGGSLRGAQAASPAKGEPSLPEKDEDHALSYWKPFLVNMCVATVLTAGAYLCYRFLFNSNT

[4] = Inhibition of Yersinia pestis protein tyrosine phosphatase
[5] = Agonist activity at INSP3R in MFF assessed as calcium influx; set-up: species or system Mus musculus
[6] = molecular target: Growth factor receptor-bound protein 2 (Homo sapiens, UniProt P62993); assay: Binding affinity to SH2 domain of GRB2 (unknown origin) by surface plasmon resonance assay
Sequence of Growth factor receptor-bound protein 2 (P62993 whole entry, the tested form may be a part): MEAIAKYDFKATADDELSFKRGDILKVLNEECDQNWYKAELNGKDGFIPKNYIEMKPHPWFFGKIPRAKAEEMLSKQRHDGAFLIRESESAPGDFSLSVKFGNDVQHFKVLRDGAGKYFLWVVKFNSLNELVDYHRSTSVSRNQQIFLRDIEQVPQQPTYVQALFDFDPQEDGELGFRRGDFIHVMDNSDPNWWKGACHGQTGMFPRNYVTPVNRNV

SMILES: CCCCCCCCCCCCCCCC(=O)C(F)(F)P(=O)(O)O
- IC50 [1]: 39 µM
- IC50 [2]: 50 µM

SMILES: CCCCCCCCCCCCCCCC(=O)CP(=O)(O)O
- IC50 [2]: 90 µM

SMILES: CCCCCC/C=C/CCCCCCCCCC(=O)NP(=O)(O)O
- IC50 [1]: 11 µM

SMILES: CCCCCNC(=O)[C@H](Cc1ccc(OC(C(=O)O)C(=O)O)cc1)NC(=O)CCC(=O)O
- inhibition [3]: 80%

SMILES: CCCCCCCC/C=C/CCCCCCCC(=O)NS(=O)(=O)NCCC
- IC50 [2]: 200 µM

SMILES: CCCCCCCCCCCCCCCC(=O)NS(=O)(=O)Oc1ccc(OC)cc1
- IC50 [2]: 35 µM

SMILES: CC(=O)N[C@@H](CC(=O)O)C(=O)N[C@@H](C)C(=O)N[C@@H](CC(=O)O)C(=O)N[C@@H](CCC(=O)O)C(=O)N[C@@H](Cc1ccc(CS(N)(=O)=O)cc1)C(=O)N[C@@H](CC(C)C)C(N)=O (Ac-DADE[X1]L-NH2)
- IC50 [4]: 370 nM

SMILES: COP(=O)(O)O[C@@H]1[C@@H](O)[C@H](OP(=O)(O)O)[C@H](O)[C@H](O)[C@H]1OP(=O)(O)O
- IC50 [5]: 9.7 µM

SMILES: Cc1ccc2c(ccn2C[C@@H]2C/C=C\C[C@H](c3ccc(CP(C)(=O)O)cc3)[C@H](CC(=O)O)C(=O)NC3(CCCCC3)C(=O)N[C@@H](CC(N)=O)C(=O)NC2)c1
- Kd [6]: 16.2 nM
